Experimental findings from article PMC7194013 (Nature plants, 2020) are described below.

Assay in all cases: in vitro enzyme assay with purified recombinant CPS and GGPP, GC-FID
Assay type in all cases: biochemical

One assay deals with T1, ZmCPS2 (An2) (Zea mays, UniProt A0A1D6K6U5).
T1 sequence (A0A1D6K6U5 71-825): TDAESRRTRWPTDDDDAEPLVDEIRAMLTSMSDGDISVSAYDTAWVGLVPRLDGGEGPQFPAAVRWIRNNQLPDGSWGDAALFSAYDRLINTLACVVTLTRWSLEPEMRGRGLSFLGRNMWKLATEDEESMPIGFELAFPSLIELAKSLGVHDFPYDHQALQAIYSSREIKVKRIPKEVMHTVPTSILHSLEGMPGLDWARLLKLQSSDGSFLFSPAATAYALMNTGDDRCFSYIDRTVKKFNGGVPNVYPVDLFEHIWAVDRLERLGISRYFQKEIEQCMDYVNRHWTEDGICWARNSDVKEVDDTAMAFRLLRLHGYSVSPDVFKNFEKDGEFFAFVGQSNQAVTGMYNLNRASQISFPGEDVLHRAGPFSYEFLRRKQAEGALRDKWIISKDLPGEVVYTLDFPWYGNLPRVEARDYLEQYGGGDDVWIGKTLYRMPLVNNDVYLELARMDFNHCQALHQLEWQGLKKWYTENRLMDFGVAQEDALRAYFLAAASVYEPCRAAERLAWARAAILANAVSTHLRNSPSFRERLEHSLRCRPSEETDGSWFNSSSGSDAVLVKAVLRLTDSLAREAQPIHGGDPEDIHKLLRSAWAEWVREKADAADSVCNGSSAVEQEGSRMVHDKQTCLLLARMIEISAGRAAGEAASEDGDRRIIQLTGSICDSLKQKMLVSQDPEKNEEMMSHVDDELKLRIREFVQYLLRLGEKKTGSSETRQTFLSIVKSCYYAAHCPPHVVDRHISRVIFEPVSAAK

The target in the next assay is T2, ZmCPS1 (An1) (Zea mays, UniProt Q41771).
T2 sequence (Q41771 64-824): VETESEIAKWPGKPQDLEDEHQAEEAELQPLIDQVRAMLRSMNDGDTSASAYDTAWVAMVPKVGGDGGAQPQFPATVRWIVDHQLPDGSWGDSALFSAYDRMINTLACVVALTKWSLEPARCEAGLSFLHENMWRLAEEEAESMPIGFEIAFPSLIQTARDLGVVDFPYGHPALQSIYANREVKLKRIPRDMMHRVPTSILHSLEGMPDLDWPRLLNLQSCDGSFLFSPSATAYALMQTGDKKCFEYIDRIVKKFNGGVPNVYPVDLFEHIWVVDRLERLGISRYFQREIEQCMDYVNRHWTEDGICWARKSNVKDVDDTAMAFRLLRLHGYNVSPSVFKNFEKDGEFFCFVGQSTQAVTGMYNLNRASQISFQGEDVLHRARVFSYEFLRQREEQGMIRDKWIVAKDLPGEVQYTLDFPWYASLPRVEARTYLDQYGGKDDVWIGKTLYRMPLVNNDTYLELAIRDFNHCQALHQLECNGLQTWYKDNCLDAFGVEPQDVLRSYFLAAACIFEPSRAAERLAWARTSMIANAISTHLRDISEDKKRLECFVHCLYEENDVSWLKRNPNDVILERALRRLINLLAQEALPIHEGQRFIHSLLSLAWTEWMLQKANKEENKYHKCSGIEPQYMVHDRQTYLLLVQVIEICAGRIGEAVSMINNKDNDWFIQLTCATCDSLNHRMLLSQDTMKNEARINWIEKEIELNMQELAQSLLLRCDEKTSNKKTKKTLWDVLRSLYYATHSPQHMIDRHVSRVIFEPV

The target of assay [1] is T3, AtCPS (ent-copalyl diphosphate synthase, GA1) (Arabidopsis thaliana, UniProt Q38802).
T3 sequence (Q38802 85-802): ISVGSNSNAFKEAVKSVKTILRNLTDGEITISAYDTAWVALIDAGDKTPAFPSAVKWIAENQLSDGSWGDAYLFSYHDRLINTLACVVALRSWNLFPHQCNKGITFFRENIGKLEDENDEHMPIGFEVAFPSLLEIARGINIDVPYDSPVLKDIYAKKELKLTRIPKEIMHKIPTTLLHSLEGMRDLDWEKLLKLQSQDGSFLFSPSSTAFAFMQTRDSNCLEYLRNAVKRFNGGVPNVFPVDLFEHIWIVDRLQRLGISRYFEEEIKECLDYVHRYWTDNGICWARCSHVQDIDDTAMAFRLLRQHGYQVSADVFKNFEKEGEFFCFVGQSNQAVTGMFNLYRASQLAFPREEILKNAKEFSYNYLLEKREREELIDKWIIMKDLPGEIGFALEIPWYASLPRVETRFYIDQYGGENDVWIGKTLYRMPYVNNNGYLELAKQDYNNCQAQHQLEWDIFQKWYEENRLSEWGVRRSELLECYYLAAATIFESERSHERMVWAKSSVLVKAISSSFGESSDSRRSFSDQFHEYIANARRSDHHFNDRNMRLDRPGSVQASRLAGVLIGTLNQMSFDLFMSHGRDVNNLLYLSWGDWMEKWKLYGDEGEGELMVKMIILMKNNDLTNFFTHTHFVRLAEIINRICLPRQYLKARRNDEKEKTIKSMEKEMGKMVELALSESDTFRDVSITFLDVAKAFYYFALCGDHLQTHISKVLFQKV

The term IC50 denotes the point on the concentration scale where inhibition reaches its midpoint.

As to `C[N+]1(C)CCCCC1` [DPC, 1,1-dimethyl-piperidinium chloride], the values for the IC50 (at ZmCPS2 (An2); on ZmCPS1 (An1); in assay [1]) were 4000 µM, 2000 µM and 30 µM, respectively.
